According to patent US5837817A, “Tumor necrosis factor receptor-II-associated protein kinase and methods for its use” (Research Development Foundation, priority 1996, dated 1998):

Assays:
purified casein kinase 1 = target: T1, purified casein kinase 1 (Rattus norvegicus, UniProt Q06486); test: In vitro kinase assay with purified casein kinase 1, p80Δ5 as substrate; assay type: biochemical; details: 100 μM inhibitor; 10 units purified casein kinase 1; read-out: inhibition of purified casein kinase 1, measured by phosphorylation of p80Δ5
T1 construct: purchased New England Biolabs, Beverly, Mass
T1 sequence (Q06486 1-317 limits assumed): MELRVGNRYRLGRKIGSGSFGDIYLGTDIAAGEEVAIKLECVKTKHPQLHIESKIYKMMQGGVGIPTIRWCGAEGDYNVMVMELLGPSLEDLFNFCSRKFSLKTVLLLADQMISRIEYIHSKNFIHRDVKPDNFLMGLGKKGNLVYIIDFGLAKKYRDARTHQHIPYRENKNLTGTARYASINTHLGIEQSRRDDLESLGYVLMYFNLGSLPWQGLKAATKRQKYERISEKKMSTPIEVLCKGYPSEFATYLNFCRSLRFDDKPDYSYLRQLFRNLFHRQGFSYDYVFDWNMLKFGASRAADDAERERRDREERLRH
Protocol: (§1) An in vitro kinase assay with 10 units of purified casein kinase 1 (FIG. 11A) or p80TRAK precipitated from U937 cells with p80Δ5 (FIG. 8B) with p80Δ5 as a substrate was performed in the presence of the indicated concentration of casein kinase 1-7 dissolved in DMSO. The asterisk represents a control in which DMSO was added to a final concentration of 1.6%. Reaction mixtures were analyzed by 9% sodium dodecyl sulfate-polyacrylamide gel electrophoresis, and the dried gel was exposed to a PhosphorImager screen. The phosphorylation of p80Δ5 was quantitated by ImageQuant Software (Molecular Dynamics, Sunnyvale, Calif.) .
(§2) Standard kinase assays were carried out for 10 minutes at 37° C. in 50 μl containing 20 mM HEPES, pH 7.4, 10 mM MgCl2, 0.2 mM ATP, 0.2 mM NaF, 0.1 mM sodium orthovanadate, and 10 μCi [γ-^32 P]ATP or as described. Reactions were stopped with 15 μl SDS-sample buffer, boiled for 5 minutes and then subjected to SDS-PAGE. Protein bands were visualized by staining with Coomassie Blue and the dried gels were analyzed by a Phosphorimager (Molecular Dynamics, Sunnyvale, Calif.). Labeled protein bands were quantitated by using ImageQuant Software (Molecular Dynamics, Sunnyvale, Calif.). […]

p80TRAK = test: In vitro kinase assay with p80TRAK precipitated from U937 cells with p80Δ5, p80Δ5 as substrate; assay type: biochemical
Protocol: as §1, §2

[1] = tested on: p80 receptor phosphorylation, SW480T cells; details: pretreatment of SW480T cells; cited from earlier work

SMILES | inhibition at 100 µM (purified casein kinase 1) [%] | effect on p80TRAK activity as measured by phosphorylation of p80Δ5 (in words) (p80TRAK) | inhibition of p80TRAK, measured by phosphorylation of p80Δ5 (p80TRAK; 100 μM inhibitor, p80TRAK precipitated from U937 cells) [%] | extent of phosphorylation of the p80 receptor [1]
NCCNS(=O)(=O)c1ccc(Cl)c2ccncc12 [casein kinase 1-7] | 80 | inhibited | 50 | –
CN[C@@H]1C[C@H]2O[C@@](C)([C@@H]1OC)n1c3ccccc3c3c4c(c5c6ccccc6n2c5c31)C(=O)NC4 [staurosporine] | – | – | – | reduced
